Measured values published in PubChem BioAssay AID270 (DTP/NCI, 2004).
“And” between values parts separate entries of the source, which are not always exact repeats. Equal entries are not always repeated. Inconclusive results are not listed.

System: BDF1 mice, s.c. Lewis lung carcinoma, T/C %
Assay: NCI In Vivo Anticancer Drug Screen. Data for tumor model Lewis Lung Carcinoma (subcutaneous) in B6D2F1 (BDF1) mice
Protocol: The antitumor activity of compounds was measured in mice bearing transplantable tumors. Survival or tumor size were measured and the results are expressed as the measurement made in the treated group (T) divided by the measurement made in the vehicle treated control group (C). The tumor model used in this assay is Lewis Lung Carcinoma (subcutaneous) in B6D2F1 (BDF1) mice

[1] = endpoint: mean tumor weight, dose: 5.0 mg/kg/injection, schedule: Q01DX011 (ip), vehicle: other, higher = larger tumour
[2] = endpoint: mean tumor weight, dose: 10.0 mg/kg/injection, schedule: Q01DX011 (ip), vehicle: other, higher = larger tumour
[3] = endpoint: mean tumor weight, dose: 20.0 mg/kg/injection, schedule: Q01DX011 (ip), vehicle: other, higher = larger tumour

For `C[C@]12CCC(=O)C=C1CC[C@@H]1[C@@H]2C(=O)C[C@@]2(C)[C@H]1CC[C@]2(O)C(=O)CO`, the T/C (endpoint: mean tumor weight, dose: 100.0 mg/kg/injection, schedule: Q01DX011 (ip), vehicle: steriod suspending solution, higher = larger tumour) was 58 % of control, the T/C (endpoint: median survival time, dose: 5.0 mg/kg/injection, schedule: Q02DX009 (ip), vehicle: Klucel (hydroxypropylcellulose) (HPC), higher = longer survival) was 102 % of control and the T/C (endpoint: median survival time, dose: 10.0 mg/kg/injection, schedule: Q02DX009 (ip), vehicle: Klucel (hydroxypropylcellulose) (HPC), higher = longer survival) was 102 % of control. For the same molecule, the T/C (endpoint: median survival time, dose: 20.0 mg/kg/injection, schedule: Q02DX009 (ip), vehicle: Klucel (hydroxypropylcellulose) (HPC), higher = longer survival) was 101 % of control and the T/C (endpoint: median survival time, dose: 40.0 mg/kg/injection, schedule: Q02DX009 (ip), vehicle: Klucel (hydroxypropylcellulose) (HPC), higher = longer survival) was 97 % of control and 102 % of control.
With `CC(=O)OC1CCC(NC(=O)N(CCCl)N=O)CC1` (stereo not given) the T/C (endpoint: median survival time, dose: 24.0 mg/kg/injection, schedule: Q01DX001 (ip), vehicle: other, higher = longer survival) was 95 % of control.
With `Cc1nn(-c2ccccc2)c(N)c1C#N` the T/C (endpoint: median survival time, dose: 12.5 mg/kg/injection, schedule: Q01DX009 (ip), vehicle: other, higher = longer survival) was 94 % of control, the T/C (endpoint: median survival time, dose: 25.0 mg/kg/injection, schedule: Q01DX009 (ip), vehicle: other, higher = longer survival) was 98 % of control and 100 % of control and the T/C (endpoint: median survival time, dose: 50.0 mg/kg/injection, schedule: Q01DX009 (ip), vehicle: other, higher = longer survival) was 97 % of control. The T/C (endpoint: median survival time, dose: 100.0 mg/kg/injection, schedule: Q01DX009 (ip), vehicle: other, higher = longer survival) was 100 % of control, the T/C (endpoint: median survival time, dose: 200.0 mg/kg/injection, schedule: Q01DX009 (ip), vehicle: other, higher = longer survival) was 100 % of control and the T/C (endpoint: median survival time, dose: 400.0 mg/kg/injection, schedule: Q01DX009 (ip), vehicle: other, higher = longer survival) was 98 % of control.
`CCc1ccc(NC(=O)N(CCCl)N=O)cc1` was tested, and the T/C (endpoint: median survival time, dose: 1.9 mg/kg/injection, schedule: Q01DX009 (ip), vehicle: Klucel (hydroxypropylcellulose) (HPC), higher = longer survival) was 108 % of control, the T/C (endpoint: median survival time, dose: 7.5 mg/kg/injection, schedule: Q01DX009 (ip), vehicle: Klucel (hydroxypropylcellulose) (HPC), higher = longer survival) was 98 % of control and the T/C (endpoint: median survival time, dose: 15.0 mg/kg/injection, schedule: Q01DX009 (ip), vehicle: Klucel (hydroxypropylcellulose) (HPC), higher = longer survival) was 95 % of control.
`c1ccc([B-]2([C+]3CCCCC3)N3CCCCC3C3CCCCN32)cc1` (stereo not given) was tested, and the T/C (endpoint: median survival time, dose: 12.5 mg/kg/injection, schedule: Q01DX009 (ip), vehicle: Klucel (hydroxypropylcellulose) (HPC), higher = longer survival) was 89 % of control and the T/C (endpoint: median survival time, dose: 25.0 mg/kg/injection, schedule: Q01DX009 (ip), vehicle: Klucel (hydroxypropylcellulose) (HPC), higher = longer survival) was 106 % of control.
For `C1CCNC1`, the T/C (endpoint: mean tumor weight, dose: 1.56 mg/kg/injection, schedule: Q01DX011 (ip), vehicle: saline, higher = larger tumour) was 65 % of control, the T/C (endpoint: mean tumor weight, dose: 3.13 mg/kg/injection, schedule: Q01DX011 (ip), vehicle: saline, higher = larger tumour) was 87 % of control and the T/C (endpoint: mean tumor weight, dose: 6.25 mg/kg/injection, schedule: Q01DX011 (ip), vehicle: saline, higher = larger tumour) was 117 % of control. For the same molecule, the T/C (endpoint: mean tumor weight, dose: 25.0 mg/kg/injection, schedule: Q01DX011 (ip), vehicle: saline, higher = larger tumour) was 73 % of control and the T/C (endpoint: mean tumor weight, dose: 50.0 mg/kg/injection, schedule: Q01DX011 (ip), vehicle: saline, higher = larger tumour) was 67 % of control.
`CCCC(Sc1nc(N)nc2nc[nH]c12)C(=O)O` (stereo not given) was tested, and the T/C [1] was 115 % of control, the T/C [2] was 58 % of control and the T/C [3] was 17 % of control. For the same molecule, the T/C (endpoint: mean tumor weight, dose: 40.0 mg/kg/injection, schedule: Q01DX011 (ip), vehicle: other, higher = larger tumour) was 49 % of control and 69 % of control, the T/C (endpoint: mean tumor weight, dose: 160.0 mg/kg/injection, schedule: Q01DX011 (ip), vehicle: other, higher = larger tumour) was 64 % of control and the T/C (endpoint: mean tumor weight, dose: 320.0 mg/kg/injection, schedule: Q01DX011 (ip), vehicle: other, higher = larger tumour) was 50 % of control and 69 % of control. The T/C (endpoint: mean tumor weight, dose: 640.0 mg/kg/injection, schedule: Q01DX011 (ip), vehicle: other, higher = larger tumour) was 48 % of control.
For `CN(C)c1ccc(/C=C\c2ccnc3ccccc23)cc1`, the T/C (endpoint: mean tumor weight, dose: 1.25 mg/kg/injection, schedule: Q01DX011 (ip), vehicle: other, higher = larger tumour) was 103 % of control, the T/C (endpoint: mean tumor weight, dose: 2.5 mg/kg/injection, schedule: Q01DX011 (ip), vehicle: other, higher = larger tumour) was 84 % of control and the T/C [1] was 75 % of control. The T/C [2] was 71 % of control and 83 % of control and the T/C [3] was 54 % of control and 68 % of control.
For `N#CC(Cc1ccccc1)C(=O)O` (stereo not given), the T/C (endpoint: mean tumor weight, dose: 55.0 mg/kg/injection, schedule: Q01DX011 (ip), vehicle: other, higher = larger tumour) was 80 % of control, the T/C (endpoint: mean tumor weight, dose: 83.0 mg/kg/injection, schedule: Q01DX011 (ip), vehicle: other, higher = larger tumour) was 68 % of control and the T/C (endpoint: mean tumor weight, dose: 125.0 mg/kg/injection, schedule: Q01DX011 (ip), vehicle: other, higher = larger tumour) was 75 % of control and 82 % of control. The T/C (endpoint: mean tumor weight, dose: 187.0 mg/kg/injection, schedule: Q01DX011 (ip), vehicle: other, higher = larger tumour) was 46 % of control, the T/C (endpoint: mean tumor weight, dose: 250.0 mg/kg/injection, schedule: Q01DX011 (ip), vehicle: other, higher = larger tumour) was 63 % of control and the T/C (endpoint: mean tumor weight, dose: 500.0 mg/kg/injection, schedule: Q01DX011 (ip), vehicle: other, higher = larger tumour) was 19 % of control.
